Experimental data published in US10300096B2, “Use of adenoviruses and nucleic acids that code for said viruses” (priority 2003, dated 2019).

Key:
Type in all cases: cell-based
U373 tumour cells [1] = test: Replication of dl520 after addition of Irinotecan, Southern blot; settings: 5 μM Irinotecan 24 hours before infection with 10 pfu/cell dl520, compared to untreated control
Method: In order to determine the effect of Irinotecan on adenoviral replication 10^6 U373 tumour cells were plated in 10 cm^2 Petri dishes. In a first reaction 5 μM Irinotecan was added after 24 hours. After another 24 hours the cells were infected with 10 pfu/cell dl520. After incubation of 3 days without Irinotecan DNA was isolated in accordance with the procedure described in example 10.
In a parallel reaction the thus prepared U373-cells were not pre-incubated with Irinotecan. After 48 hours of cultivating the cells without Irinotecan, they were infected with 10 pfu/cell dl520 and subsequently incubated without Irinotecan for another 3 days. DNA was isolated as described above.
Subsequently […] were digested with restriction enzyme Kpn I and a Southern Blot analysis performed. A part of the adenoviral genome (position: 22734-24235) generated by means of PCR was used as a probe.

[2] = system: coxsackievirus-adenovirus-receptor (CAR) on U373 cells; test: CAR expression by Facs-analysis; settings: 1 μM Trichostatin for 24 hours; 11.3% without treatment
Method: 200,000 U373 cells were plated in 6 well plates. After 24 hours the cells were cultivated with 1 μM Trichostatin for 24 hours. After another 24 hours the cells were isolated. Subsequently, analysis of CAR expression was performed according to a standard protocol using Facs-analysis and the primary antibody anti-CAR clone RmcB from the company Upstate, and a rabbit anti-mouse FITC as secondary antibody (company DAKO).

U373 tumour cells [3] = test: Replication of dl520 after administration of Trichostatin A, Southern blot; settings: 0.25, 0.5 and 0.75 μM Trichostatin A 24 hours before infection with 10 pfu dl520/cell, compared to untreated controls
Method: In order to test the effect of Trichostatin A on adenoviral replication, 10^6 U373 tumour cells were plated in 10 cm^2 Petri dishes. After 24 hours 0, 0.25, 0.5 and 0.75 μM Trichostatin A was added. After another 24 hours the cells were infected with 10 pfu dl520/cell.
After 3 days of incubation in medium without Trichostatin DNA was isolated. Subsequently 2 μg DNA were digested with restriction enzyme Kpn I and a Southern Blot analysis performed. A part of the adenoviral genome (position: 22734-24235) generated by means of PCR was used as a probe.

U2OS cells = test: Oncolytic assay with daunorubicine and dl520, crystal violet; settings: 40 ng/ml daunorubicine 3 hours before infection
Method: (§1) In the practising of the oncolytic assays the following procedure was followed: 200,000 cells (HeLa and U2OS, respectively) were plated into each well of a 6 well plate. On the next day 40 ng/ml (final concentration) of daunorubicine were added. After 3 hours of incubation the cells were infected with 10 and 30 pfu dl520/cell, respectively. Subsequently, the cells were incubated in cytostatic free medium. After 3-5 days the cells were stained using crystal violet.

HeLa cells = test: as above; settings: 40 ng/ml daunorubicine 3 hours before infection
Method: as §1

`CCc1c2c(nc3ccc(OC(=O)N4CCC(N5CCCCC5)CC4)cc13)-c1cc3c(c(=O)n1C2)COC(=O)[C@]3(O)CC` [Irinotecan] was tested, and the “adenoviral replication (dl520, Southern blot)” value (U373 tumour cells [1]) was “significantly increased”.
In the case of `CC(/C=C/C(=O)NO)=C\[C@@H](C)C(=O)c1ccc(N(C)C)cc1` [Trichostatin A], the CAR-positive cells [2] is reported as 56.2% and the “viral replication (dl520, Southern blot)” value (U373 tumour cells [3]) is reported as “significantly increased”.
In the case of `COc1cccc2c1C(=O)c1c(O)c3c(c(O)c1C2=O)C[C@@](O)(C(C)=O)C[C@@H]3O[C@H]1C[C@H](N)[C@H](O)[C@H](C)O1` [daunorubicine], the “effect on replication of dl520” value (U2OS cells) is reported as “induces the replication of dl520” and the “effect on replication of dl520” value (HeLa cells) is reported as “induces the replication of dl520”.
